Data from PMC5352362, “Molecular and functional evaluation of a novel HIF inhibitor, benzopyranyl 1,2,3-triazole compound” (Oncotarget, 2016).

What was measured:
[1] = test system: HUVECs; experiment: BrdU cell proliferation assay, VEGF-induced; assay type: cell-based, human; conditions: VEGF 20 ng/mL
Experimental: (§1) Figure 5 Compound 12 suppressed HIF-1α target gene expression, and confirmation of in vitro results via determination of effects on angiogenesis in vivo (A) A549 cells were treated with Compound 12 (at concentrations of 0 nM, 1 nM, 10 nM, and 100 nM) for 16 h. The mRNA levels of HIF-1α target genes were determined by semiquantitative RT-PCR. β-actin was used as an internal control. D. DMSO vehicle control. N, normoxia; H, hypoxia. (B) A549 cells were treated with serum-reduced culture media containing Compound 12 (at concentrations of 0 nM, 10 nM, and 100 nM) for 16 h. Media supernatant was collected, and secreted VEGF was determined by ELISA after removal of cellular debris. N, normoxia; H, hypoxia. **P < 0.01 versus hypoxia (H) DMSO (D)-treated control. (C) HUVECs were treated with Compound 12, at the indicated concentrations, in the presence of VEGF (20 ng/mL) for 24 h in 1% serum-containing media. […] Cells that migrated through the membrane (8 μm pore size) were stained with hematoxylin and eosin, pictured as shown in upper panel, and counted (graph). *P < 0.05, **P < 0.01 versus VEGF-treated control. […] (F) Compound 12 (0.1 μg and 1 μg dosages) and retinoic acid (RA, positive control) were applied to the ED 4.5 CAM for two days, neovessel formation from the large vessels was observed, and percentages of positive angiogenic eggs (from total eggs tested) were calculated. […]

[2] = test system: HUVECs; experiment: Transwell cell migration assay, VEGF-induced; assay type: cell-based, human; conditions: VEGF 20 ng/mL, 24 h
Experimental: as §1

COc1ccc(-c2cn(CC3(C)C=Cc4cc([N+](=O)[O-])ccc4O3)nn2)cc1 (centres unmarked) [Compound 12, 4-(4-methoxyphenyl)-1-((2-methyl-6-nitro-2H-chromen-2-yl)methyl)-1H-1,2,3-triazole]
VEGF-induced endothelial cell proliferation (BrdU) [1]: significantly inhibited VEGF-induced proliferation
VEGF-induced endothelial migration [2]: significantly inhibited
